Test results: patent US20240025919A1, “AZA-TETRACYCLIC OXAZEPINE COMPOUNDS AND USES THEREOF” (Genentech, Inc., priority 2022, published 2024)

Columns and labels:
[1] = molecular target: KRAS WT (Homo sapiens (Human), UniProt P01116); assay: KRAS WT Biochemical Assay, BODIPY-GDP Exchange TR-FRET (Example 502; 0.06 nM KRAS WT, 15 nM GDP, 300 nM SOS1, 120-minute incubation); settings: read-out: KRas HTRF IC50
Summary of the method: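 IC50 from a 4-parameter Hill fit of percent inhibition, itself the TR-FRET 520/490 nm ratio scaled between DMSO and a fully inhibiting control. Reaction: 300 nM SOS1 and 300 nM BODIPY-GDP added to preformed 0.06 nM KRAS WT/15 nM GDP/Tb-streptavidin complex; 120 min incubation; pH 7.5 HEPES, MgCl2, DTT.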

[2] = molecular target: KRAS G12D (Homo sapiens (Human), UniProt P01116, G12D); assay: KRAS G12D LoEnz Biochemical Assay, BODIPY-GDP Exchange TR-FRET (SOS1-mediated nucleotide exchange); settings: read-out: KRas (G12D) GDP HTRF IC50
KRAS G12D, sequence (P01116-2 other isoform, or with tags, fused parts or gaps G12D): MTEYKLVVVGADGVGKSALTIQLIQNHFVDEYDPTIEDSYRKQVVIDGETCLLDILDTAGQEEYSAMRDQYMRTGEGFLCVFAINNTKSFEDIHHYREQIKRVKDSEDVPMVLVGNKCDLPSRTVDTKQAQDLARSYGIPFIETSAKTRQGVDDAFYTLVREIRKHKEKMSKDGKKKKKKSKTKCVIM

KRAS WT, sequence (P01116-2 other isoform, or with tags, fused parts or gaps): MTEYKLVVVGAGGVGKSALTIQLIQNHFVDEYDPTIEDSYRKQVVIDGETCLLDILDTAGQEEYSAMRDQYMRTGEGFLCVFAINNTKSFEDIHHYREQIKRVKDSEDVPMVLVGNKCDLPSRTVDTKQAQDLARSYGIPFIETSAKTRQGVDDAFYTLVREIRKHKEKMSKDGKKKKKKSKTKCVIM

| Structure (SMILES) | IC50 [1] [µM] | IC50 [2] [µM] |
| --- | --- | --- |
| C[C@@H]1Oc2nc(-c3[nH]c(=O)cc4ccccc34)c(F)c3nc(OC[C@@]45CCCN4C[C@H](F)C5)nc(c23)N2C[C@H]3CC[C@H](N3)[C@@H]12 [Compound 105, 1-((5S,5aS,6S,9R)-1-Fluoro-12-(((2R,7aS)-2-fluorotetrahydro-1H-pyrrolizin-7a(5H)-yl)methoxy)-5-methyl-5a,6,7,8,9,10-hexahydro-5H-4-oxa-3,10a,11,13,14-pentaaza-6,9-methanonaphtho[1,8-ab]heptalen-2-yl)isoquinolin-3(2H)-one] | 9.7 | 0.141 |
| C[C@@H]1Oc2nc(-c3c(C#N)c(N)c(F)c(F)c3C(F)(F)F)c(F)c3nc(OC[C@@]45CCCN4C[C@H](F)C5)nc(c23)N2C[C@H]3CC[C@H](N3)[C@@H]12 [Compound 107, 2-Amino-3,4-difluoro-6-((5S,5aS,6S,9R)-1-fluoro-12-(((2R,7aS)-2-fluorotetrahydro-1H-pyrrolizin-7a(5H)-yl)methoxy)-5-methyl-5a,6,7,8,9,10-hexahydro-5H-4-oxa-3,10a,11,13,14-pentaaza-6,9-methanonaphtho[1,8-ab]heptalen-2-yl)-5-(trifluoromethyl)benzonitrile] | 0.167 | 0.00139 |
| Cc1cc(N)c(F)c(-c2nc3c4c(nc(OC[C@@]56CCCN5C[C@H](F)C6)nc4c2F)N2C[C@H]4CC[C@H](N4)[C@H]2[C@H](C)O3)c1I [Compound 108, 2-Fluoro-3-((5S,5aS,6S,9R)-1-fluoro-12-(((2R,7aS)-2-fluorotetrahydro-1H-pyrrolizin-7a(5H)-yl)methoxy)-5-methyl-5a,6,7,8,9,10-hexahydro-5H-4-oxa-3,10a,11,13,14-pentaaza-6,9-methanonaphtho[1,8-ab]heptalen-2-yl)-4-iodo-5-methylaniline] | 0.0376 | 0.000325 |
| C#Cc1c(F)ccc2cc(N)cc(-c3nc4c5c(nc(OC[C@]67CCN6CC(F)(F)C7)nc5c3F)N3C[C@H]5CC[C@H](N5)[C@H]3[C@H](C)O4)c12 [Compound 110, 4-((5S,5aS,6S,9R)-12-(((R)-3,3-Difluoro-1-azabicyclo[3.2.0]heptan-5-yl)methoxy)-1-fluoro-5-methyl-5a,6,7,8,9,10-hexahydro-5H-4-oxa-3,10a,11,13,14-pentaaza-6,9-methanonaphtho[1,8-ab]heptalen-2-yl)-5-ethynyl-6-fluoronaphthalen-2-amine] | 0.00775 | 0.00015 |
| Cc1c(F)c(N)cc(-c2nc3c4c(nc(OC[C@@H]5CC[C@H]6COCCN65)nc4c2F)N2C[C@H]4CC[C@H](N4)[C@H]2[C@H](C)O3)c1Cl [Compound 111, 4-Chloro-2-fluoro-5-((5S,5aS,6S,9R)-1-fluoro-12-(((6S,8aS)-hexahydro-1H-pyrrolo[2,1-c][1,4]oxazin-6-yl)methoxy)-5-methyl-5a,6,7,8,9,10-hexahydro-5H-4-oxa-3,10a,11,13,14-pentaaza-6,9-methanonaphtho[1,8-ab]heptalen-2-yl)-3-methylaniline] | 0.108 | 0.00031 |
| Cc1nc(N)cc(-c2nc3c4c(nc(OC[C@@H]5CC[C@H]6COCCN65)nc4c2F)N2C[C@H]4CC[C@H](N4)[C@H]2[C@H](C)O3)c1C(F)(F)F [Compound 112, 4-((5S,5aS,6S,9R)-1-fluoro-12-(((6S,8aS)-hexahydro-1H-pyrrolo[2,1-c][1,4]oxazin-6-yl)methoxy)-5-methyl-5a,6,7,8,9,10-hexahydro-5H-4-oxa-3,10a,11,13,14-pentaaza-6,9-methanonaphtho[1,8-ab]heptalen-2-yl)-6-methyl-5-(trifluoromethyl)pyridin-2-amine] | 0.0628 | 0.00048 |
| Cc1c(F)c(N)cc(-c2nc3c4c(nc(OC[C@@H]5CC[C@H]6COCCN65)nc4c2F)N2C[C@H]4CC[C@H](N4)[C@H]2[C@H](C)O3)c1CC(F)(F)F [Compound 113, 2-fluoro-5-((5S,5aS,6S,9R)-1-fluoro-12-(((6S,8aS)-hexahydro-1H-pyrrolo[2,1-c][1,4]oxazin-6-yl)methoxy)-5-methyl-5a,6,7,8,9,10-hexahydro-5H-4-oxa-3,10a,11,13,14-pentaaza-6,9-methanonaphtho[1,8-ab]heptalen-2-yl)-3-methyl-4-(2,2,2-trifluoroethyl)aniline] | 0.0656 | 0.00031 |
